From patent US20160009686A1, “VEGFR3 INHIBITORS” (CANCER THERAPEUTICS CRC PTY LIMITED, priority 2012, published 2016)
Where two headings read alike, the source gives them in different places.

Target: VEGFR3 cytoplasmic domain (Homo sapiens, UniProt P35916)
Assay: VEGFR3 Biochemical Assay (AlphaScreen)
Details: GST-fusion enzyme, 500 μM ATP, 90 minutes at 30 degree Celsius (modified form in some cases: Hexa-His-fusion enzyme, 1 μM ATP)

Chain of VEGFR3 cytoplasmic domain (P35916 798-1298 isoform P35916-1): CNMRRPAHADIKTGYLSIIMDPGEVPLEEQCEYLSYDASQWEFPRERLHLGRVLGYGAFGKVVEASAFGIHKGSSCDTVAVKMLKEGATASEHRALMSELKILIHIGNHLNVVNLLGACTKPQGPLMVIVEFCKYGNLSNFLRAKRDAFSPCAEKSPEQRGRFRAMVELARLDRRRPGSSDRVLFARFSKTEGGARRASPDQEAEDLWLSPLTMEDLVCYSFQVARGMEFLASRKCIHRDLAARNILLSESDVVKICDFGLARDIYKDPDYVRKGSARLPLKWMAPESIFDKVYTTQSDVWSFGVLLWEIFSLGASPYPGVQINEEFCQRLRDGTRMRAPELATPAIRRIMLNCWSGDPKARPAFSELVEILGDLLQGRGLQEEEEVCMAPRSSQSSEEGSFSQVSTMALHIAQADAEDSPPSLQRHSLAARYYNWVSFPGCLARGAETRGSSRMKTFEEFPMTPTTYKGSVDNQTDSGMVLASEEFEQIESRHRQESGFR

SMILES | IC50 (read-out: IC50) [nM] | IC50 (IC50 (nM)) [nM]
Cc1cnc(Nc2cnn(C)c2)nc1CCc1ccccc1C(C)C(N)=O (single isomer, unassigned) [Compound 51-1A, 2-(2-(2-(5-methyl-2-((1-methyl-1H-pyrazol-4-yl)amino)pyrimidin-4-yl)ethyl)phenyl)propanamide] | 25 | 
Cn1ccc(Nc2ncc(Cl)c(CCc3ccccc3C3(C(N)=O)CC3)n2)n1 [Compound 28, 1-(2-(2-(5-Chloro-2-((1-methyl-1H-pyrazol-3-yl)amino)pyrimidin-4-yl)ethyl)phenyl)cyclopropanecarboxamide] | 268 | 
COc1ccc(Nc2ncc(C(F)(F)F)c(CCc3ccccc3C(C)C(N)=O)n2)cn1 (stereo not drawn) [Compound 61, 2-(2-(2-(2-((6-Methoxypyridin-3-yl)amino)-5-(trifluoromethyl)pyrimidin-4-yl)ethyl)phenyl) propanamide] | 118 | 
Cc1cnc(Nc2cn[nH]c2)nc1CCc1ccccc1C1(C(N)=O)CC1 [Compound 46, 1-(2-(2-(2-((1H-Pyrazol-4-yl)amino)-5-methylpyrimidin-4-yl)ethyl)phenyl)cyclopropanecarboxamide] | 13 | 
CC(C(N)=O)c1ccccc1CCc1nc(Nc2ccc(C3CCNCC3)nc2)ncc1Cl (stereo not drawn) [Compound 37, 2-(2-(2-(5-Chloro-2-((6-(piperidin-4-yl)pyridin-3-yl)amino)pyrimidin-4-yl)ethyl)phenyl)propanamide] | 31 | 
NC(=O)C1(c2ccccc2CCc2nc(Nc3cnn(C(F)F)c3)ncc2Cl)CC1 [Compound 34, 1-(2-(2-(5-Chloro-2-((1-(difluoromethyl)-1H-pyrazol-4-yl)amino)pyrimidin-4-yl)ethyl)phenyl)cyclopropanecarboxamide] | 7 | 
CC(N)c1ccc(Nc2ncc(Cl)c(CCc3ccccc3C3(C(N)=O)CC3)n2)cn1 (stereo not drawn) [Compound 33, 1-(2-(2-(2-((6-(1-Aminoethyl)pyridin-3-yl)amino)-5-chloropyrimidin-4-yl)ethyl)phenyl)cyclopropanecarboxamide] | 60 | 
NC(=O)C1(c2cccc(CCc3nc(Nc4cnn(C5CCNCC5)c4)ncc3C(F)(F)F)c2)CC1 [Compound 53, 1-(3-(2-(2-((1-(Piperidin-4-yl)-1H-pyrazol-4-yl)amino)-5-(trifluoromethyl)pyrimidin-4-yl)ethyl)phenyl)cyclopropanecarboxamide] | 228 | 
Cc1cnc(Nc2cnn(C)c2)nc1CCc1ccccc1C(C)C(N)=O (single isomer, unassigned) [Compound 51-2A, 2-(2-(2-(5-methyl-2-((1-methyl-1H-pyrazol-4-yl)amino)pyrimidin-4-yl)ethyl)phenyl)propanamide] | 41 | 
NC(=O)C1(c2ccccc2CCc2nc(Nc3cnn(C4CCNCC4)c3)ncc2C(F)(F)F)CC1 [Compound 66, 1-(2-(2-(2-((1-(Piperidin-4-yl)-1H-pyrazol-4-yl)amino)-5-(trifluoromethyl)pyrimidin-4-yl)ethyl)phenyl)cyclopropanecarboxamide] | 7 | 
COCCn1cc(Nc2ncc(Cl)c(CCc3ccccc3C3(C(N)=O)CC3)n2)cn1 [Compound 77] | 3 | 
NC(=O)C1(c2ccccc2CCc2nc(Nc3ccccc3)ncc2Cl)CC1 [Compound 23, 1-(2-(2-(5-Chloro-2-(phenylamino)pyrimidin-4-yl)ethyl)phenyl)cyclopropanecarboxamide] |  | 11
CC(C(N)=O)c1ccccc1CCc1nc(Nc2cccnc2)ncc1Cl (stereo not drawn) [Compound 39, 2-(2-(2-(5-Chloro-2-(pyridin-3-ylamino)pyrimidin-4-yl)ethyl)phenyl) propanamide] | 44 | 
CC(C(N)=O)c1ccccc1CCc1nc(Nc2ccc(C3CCN(C)CC3)nc2)ncc1C(F)(F)F (stereo not drawn) [Compound 63, 2-(2-(2-(2-((6-(1-Methylpiperidin-4-yl)pyridin-3-yl)amino)-5-(trifluoromethyl)pyrimidin-4-yl)ethyl)phenyl)propanamide] | 28 | 
Cn1cc(Nc2ncc(C(F)(F)F)c(CCc3ccccc3C3(C(N)=O)CC3)n2)cn1 [Compound 65, 1-(2-(2-(2-((1-Methyl-1H-pyrazol-4-yl)amino)-5-(trifluoromethyl)pyrimidin-4-yl)ethyl)phenyl)cyclopropanecarboxamide] | 3 | 
CC(C(N)=O)c1ccccc1CCc1nc(Nc2ccnnc2)ncc1Cl (stereo not drawn) [Compound 42, 2-(2-(2-(5-Chloro-2-(pyridazin-4-ylamino)pyrimidin-4-yl)ethyl)phenyl)propanamide] | 154 | 
CC(C(N)=O)c1ccccc1CCc1nc(Nc2ccc(C3CCNCC3)nc2)ncc1C(F)(F)F (stereo not drawn) [Compound 62, 2-(2-(2-(2-((6-(Piperidin-4-yl)pyridin-3-yl)amino)-5-(trifluoromethyl)pyrimidin-4-yl)ethyl)phenyl)propanamide] | 492 | 
N#Cc1ccc(Nc2ncc(Cl)c(CCc3ccccc3C3(C(N)=O)CC3)n2)cn1 [Compound 31, 1-(2-(2-(5-Chloro-2-((6-cyanopyridin-3-yl)amino)pyrimidin-4-yl)ethyl)phenyl)cyclopropanecarboxamide] | 48 | 

SMILES | IC50 (read-out: IC50) [nM] | IC50 (IC50 (nM)) [nM]
NC(=O)C1(c2ccccc2CCc2nc(Nc3cnn(CCO)c3)ncc2Cl)CC1 [Compound 76] | 4 | 
Cc1cnc(Nc2ccc(C3CCN(C)CC3)nc2)nc1CCc1ccccc1C1(C(N)=O)CC1 [Compound 49, 1-(2-(2-(5-Methyl-2-((6-(1-methylpiperidin-4-yl)pyridin-3-yl)amino)pyrimidin-4-yl)ethyl)phenyl)cyclopropanecarboxamide] | 23 | 
NC(=O)C1(c2ccccc2CCc2nc(Nc3cnn(CC(F)(F)F)c3)ncc2Cl)CC1 [Compound 29, 1-(2-(2-(5-Chloro-2-((1-(2,2,2-trifluoroethyl)-1H-pyrazol-4-yl)amino)pyrimidin-4-yl)ethyl)phenyl)cyclopropanecarboxamide] | 8 | 
NC(=O)C1(c2ccccc2CCc2nc(Nc3ncco3)ncc2Cl)CC1 [Compound 11, 1-(2-(2-(5-Chloro-2-(oxazol-2-ylamino)pyrimidin-4-yl)ethyl)phenyl)cyclopropanecarboxamide] | 1300 | 
Cc1cnc(Nc2cnn(C)c2)nc1CCc1ccccc1C1(C(N)=O)CC1 [Compound 47, 1-(2-(2-(5-Methyl-2-((1-methyl-1H-pyrazol-4-yl)amino)pyrimidin-4-yl)ethyl)phenyl)cyclopropanecarboxamide] | 5 | 
CC(C)n1cc(Nc2ncc(Cl)c(CCc3ccccc3C3(C(N)=O)CC3)n2)cn1 [Compound 30, 1-(2-(2-(5-Chloro-2-((1-isopropyl-1H-pyrazol-4-yl)amino)pyrimidin-4-yl)ethyl)phenyl)cyclopropanecarboxamide] | 4 | 
CN1CCC(n2cc(Nc3ncc(C(F)(F)F)c(CCc4ccccc4C4(C(N)=O)CC4)n3)cn2)CC1 [Compound 67, 1-(2-(2-(2-((1-(1-Methylpiperidin-4-yl)-1H-pyrazol-4-yl)amino)-5-(trifluoromethyl)pyrimidin-4-yl)ethyl)phenyl)cyclopropanecarboxamide] | 7 | 
CC(=O)c1ccc(Nc2ncc(Cl)c(CCc3ccccc3C3(C(N)=O)CC3)n2)cn1 [Compound 32, 1-(2-(2-(2-((6-Acetylpyridin-3-yl)amino)-5-chloropyrimidin-4-yl)ethyl)phenyl)cyclopropanecarboxamide] | 44 | 
Cc1cnc(Nc2ccc(C(C)N)cc2)nc1CCc1ccccc1C1(C(N)=O)CC1 (stereo not drawn) [Compound 50, 1-(2-(2-(2-((4-(1-Aminoethyl)phenyl)amino)-5-methylpyrimidin-4-yl)ethyl)phenyl)cyclopropanecarboxamide] | 46 | 
CC(C(N)=O)c1ccccc1CCc1nc(Nc2ccc(C3CCN(C)CC3)nc2)ncc1Cl (stereo not drawn) [Compound 38, 2-(2-(2-(5-Chloro-2-((6-(1-methylpiperidin-4-yl)pyridin-3-yl)amino)pyrimidin-4-yl)ethyl)phenyl)propanamide] | 32 | 
CC(N)c1ccc(Nc2ncc(C(F)(F)F)c(CCc3ccccc3C3(C(N)=O)CC3)n2)cc1 (stereo not drawn) [Compound 70A, 1-(2-(2-(2-(4-(1-Aminoethyl)phenylamino)-5-(trifluoromethyl)pyrimidin-4-yl)ethyl)phenyl)cyclopropanecarboxamide] | 22 | 
Cc1n[nH]cc1Nc1ncc(Cl)c(CCc2ccccc2C2(C(N)=O)CC2)n1 [Compound 25, 1-(2-(2-(5-Chloro-2-((3-methyl-1H-pyrazol-4-yl)amino)pyrimidin-4-yl)ethyl)phenyl)cyclopropanecarboxamide] | 7 | 
CC(=O)NC(C)c1ccc(Nc2ncc(C(F)(F)F)c(CCc3ccccc3C3(C(N)=O)CC3)n2)cc1 (stereo not drawn) [Compound 71, 1-(2-(2-(2-(4-(1-Acetamidoethyl)phenylamino)-5-(trifluoromethyl)pyrimidin-4-yl)ethyl)phenyl)cyclopropanecarboxamide] | 10 | 
Cc1nn(C)cc1Nc1ncc(Cl)c(CCc2ccccc2C2(C(N)=O)CC2)n1 [Compound 26, 1-(2-(2-(5-Chloro-2-((1,3-dimethyl-1H-pyrazol-4-yl)amino)pyrimidin-4-yl)ethyl)phenyl)cyclopropanecarboxamide] | 12 | 
CC(C(N)=O)c1ccccc1CCc1nc(Nc2cnn(C3CCNCC3)c2)ncc1Cl (stereo not drawn) [Compound 43, 2-(2-(2-(5-Chloro-2-(1-(piperidin-4-yl)-1H-pyrazol-4-ylamino)pyrimidin-4-yl)ethyl)phenyl) propanamide] | 12 | 
Cc1cnc(Nc2cnn(C3CCN(C)CC3)c2)nc1CCc1ccccc1C1(C(N)=O)CC1 [Compound 48, 1-(2-(2-(5-Methyl-2-((1-(1-methylpiperidin-4-yl)-1H-pyrazol-4-yl)amino)pyrimidin-4-yl)ethyl)phenyl)cyclopropanecarboxamide] | 12 | 
Cc1ccc(Nc2ncc(Cl)c(CCc3ccccc3C(C)C(N)=O)n2)cn1 (stereo not drawn) [Compound 41, 2-(2-(2-(5-chloro-2-(6-methylpyridin-3-ylamino)pyrimidin-4-yl)ethyl)phenyl) propanamide] | 45 | 
CN1CCC(c2ccc(Nc3ncc(C(F)(F)F)c(CCc4ccccc4C4(C(N)=O)CC4)n3)cn2)CC1 [Compound 69, 1-(2-(2-(2-((6-(1-Methylpiperidin-4-yl)pyridin-3-yl)amino)-5-(trifluoromethyl)pyrimidin-4-yl)ethyl)phenyl)cyclopropanecarboxamide] | 63 | 
